What was measured:
CYP154C3-1 = target: T1, CYP154C3-1 (Streptomyces sp., UniProt A0A2H4WK73); assay: type I spectral shift titration (A390-A420), tight-binding quadratic fit; parameters: species or system Streptomyces sp. W2061
T1 construct: full-length CDS 1,239 bp (412 residues), N-terminal Trx-His-S-enterokinase fusion from pET32a(+) kept, E. coli C41(DE3), ~65 kDa on SDS-PAGE (~45 kDa theoretical without fusion), heme protein
Source text: type I spectral shift titration (A390-A420), tight-binding quadratic fit on CYP154C3-1

CYP154C3-2 = target: T2, CYP154C3-2 (Streptomyces sp., UniProt A0A7S9IUH5); assay: as above
T2 construct: full-length CDS 1,254 bp (417 residues), N-terminal Trx-His-S-enterokinase fusion from pET32a(+) kept, E. coli C41(DE3), ~65 kDa on SDS-PAGE (~45 kDa theoretical without fusion), heme protein
T2 sequence (A0A7S9IUH5 1-417): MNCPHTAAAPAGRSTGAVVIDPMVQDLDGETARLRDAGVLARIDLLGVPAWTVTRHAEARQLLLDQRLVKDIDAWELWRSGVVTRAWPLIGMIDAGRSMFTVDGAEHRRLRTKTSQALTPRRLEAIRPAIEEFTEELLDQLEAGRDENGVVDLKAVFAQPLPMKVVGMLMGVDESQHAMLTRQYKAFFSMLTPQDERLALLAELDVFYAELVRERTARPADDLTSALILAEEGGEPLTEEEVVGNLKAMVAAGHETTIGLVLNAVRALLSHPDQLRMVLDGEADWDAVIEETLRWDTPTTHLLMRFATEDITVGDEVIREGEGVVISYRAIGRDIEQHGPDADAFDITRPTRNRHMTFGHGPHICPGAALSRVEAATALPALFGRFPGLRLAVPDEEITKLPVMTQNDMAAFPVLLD
Source text: type I spectral shift titration (A390-A420), tight-binding quadratic fit on CYP154C3-2

T1 sequence (A0A2H4WK73 1-414): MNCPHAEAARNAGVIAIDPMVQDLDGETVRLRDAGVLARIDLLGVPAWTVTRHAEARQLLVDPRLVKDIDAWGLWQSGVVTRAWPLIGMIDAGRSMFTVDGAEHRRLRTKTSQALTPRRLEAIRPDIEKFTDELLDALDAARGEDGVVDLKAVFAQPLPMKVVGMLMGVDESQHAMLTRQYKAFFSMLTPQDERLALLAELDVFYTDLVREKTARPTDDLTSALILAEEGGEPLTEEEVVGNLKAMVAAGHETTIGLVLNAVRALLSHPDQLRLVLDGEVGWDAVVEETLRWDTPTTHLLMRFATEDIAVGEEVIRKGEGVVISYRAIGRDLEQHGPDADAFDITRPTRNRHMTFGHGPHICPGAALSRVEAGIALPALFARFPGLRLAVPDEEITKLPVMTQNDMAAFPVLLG

C[C@]12CCC(=O)C=C1CC[C@@H]1[C@@H]2C(=O)C[C@]2(C)C(=O)CC[C@@H]12 [compound 1, Adrenosterone]
Kd (CYP154C3-1): 0.318 ± 0.026 µM
Kd (CYP154C3-2): 0.443 ± 0.035 µM

C[C@]12CCC(=O)C=C1CC[C@@H]1[C@@H]2CC[C@]2(C)C(=O)CC[C@@H]12 [compound 2, Androstenedione]
Kd (CYP154C3-1): 0.351 ± 0.033 µM
Kd (CYP154C3-2): 0.475 ± 0.054 µM

C[C@]12C[C@H](O)[C@H]3[C@@H](CCC4=CC(=O)CC[C@@]43C)[C@@H]1CC[C@@H]2C(=O)CO [compound 3, Corticosterone]
Kd (CYP154C3-1): 14.1 ± 2.57 µM
Kd (CYP154C3-2): 44.5 ± 3.97 µM

CC(=O)[C@H]1CC[C@H]2[C@@H]3CCC4=CC(=O)CC[C@]4(C)[C@H]3CC[C@]12C [compound 9, Progesterone]
Kd (CYP154C3-2): 0.409 ± 0.037 µM

C[C@]12CC[C@H]3[C@@H](CCC4=CC(=O)CC[C@@H]43)[C@@H]1CC[C@@H]2O [compound 6, Nandrolone]
Kd (CYP154C3-1): 13.5 ± 2.62 µM
Kd (CYP154C3-2): 6.58 ± 0.84 µM
